Data from article PMC4977564, “Inhibition of Mycobacterium tuberculosis dihydrodipicolinate synthase by alpha-ketopimelic acid and its other structural analogues” (Scientific Reports, 2016).

Key:
[1] = molecular target: T1, recombinant Mtb-DapA (Mtb-rDapA) (Mycobacterium tuberculosis, UniProt P9WP25); assay: biochemical; conditions: for Emax: read-out: Maximal Inhibition (%)
Escherichia coli DapA = conditions: cited from earlier work; for Ki: competitive inhibitors, structural analogues of pyruvate
[2] = molecular target: T1, recombinant Mtb-DapA (Mtb-rDapA); conditions: for Inhibition of Mtb-rDapA (in words): pyruvate 500 μM, ASA 400 μM, up to millimolar concentrations
Mtb-rDapA = Mtb-rDapA (Mycobacterium tuberculosis, UniProt P9WP25); assay: Fluorescence-based thermal shift assay; format: binding; conditions: ligand 0.2 mM to 1 mM; Mtb-rDapA Tm 84.8 °C
Text: The fluorescence based thermal shift assay for screening of identified ligands, which is based on the principle that ligand binding alters thermal stability of protein. This method allows us to monitor the protein denaturation upon heating using fluorescence based dye (Sypro orange, Sigma, USA), which binds to hydrophobic part of proteins during protein denaturation and emits fluorescence at 580 nm[43]. We can monitor the changes in fluorescence and generate a thermal melting curve using real time PCR. The mid-point of the melting curve designated as the melting temperature Tm corresponding to 50% of protein being denatured.
The thermal shift assay was carried out in the LightCycler^R LC480 qPCR machine using 384 well PCR plates (Roche, USA). An assay mixture of 20 μl contained 20 μM Mtb-rDapA, 15 X Sypro Orange (Sigma), 50 mM sodium phosphate buffer pH 7.4 and ligand in the range 0.2 mM to 1 mM. The ligands and Mtb-rDapA were diluted in sodium phosphate buffer. The PCR plates were sealed with optical seal, mixed well and centrifuged after the assay mixture was added. […] The fluorescence intensity was measured by excitation at 465 nm and emission at 580 nm. Curve fitting, melting temperature calculation and report generation on the raw Fluorescence based thermal shift assay (FTS) data were performed using pre-installed analysis software provided with the instrument (Roche, USA)[44].

T1 sequence (P9WP25 whole entry, looked up): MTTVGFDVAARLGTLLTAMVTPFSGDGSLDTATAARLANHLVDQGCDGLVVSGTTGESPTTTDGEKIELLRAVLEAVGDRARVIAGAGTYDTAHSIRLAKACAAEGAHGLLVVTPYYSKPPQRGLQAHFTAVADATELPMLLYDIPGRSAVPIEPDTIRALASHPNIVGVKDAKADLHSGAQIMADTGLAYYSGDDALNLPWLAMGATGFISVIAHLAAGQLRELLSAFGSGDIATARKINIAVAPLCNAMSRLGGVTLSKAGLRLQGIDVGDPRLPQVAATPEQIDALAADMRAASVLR
Sequence of Mtb-rDapA (P9WP25 whole entry, looked up): as above

| SMILES | Emax [1] [%] | also measured |
| --- | --- | --- |
| O=C(O)C(=O)c1ccc(C(=O)O)cc1 [compound 33, carboxycarbonyl-benzoic acid] | 22 |  |
| O=C(O)CCC(=O)C(=O)O [compound 3, 2-oxopentanedioic acid] | 15 |  |
| CN(CCCC(=O)O)C(=O)C(=O)O [compound 18, carboxy-methylformamido-butanoic acid] | 39 |  |
| O=C(O)c1cccc(C(=O)O)[n+]1[O-] [N-oxide of dipicolinic acid] |  | IC50 (Escherichia coli DapA): 200 µM |
| CN(CCCC(N)=O)C(=O)C(=O)O [compound 14, amino-oxobutyl-methyl-amino-oxoacetic acid] | 44 |  |
| N[C@@H](CC=O)C(=O)O [ASA, L-aspartate-beta-semialdehyde] |  | Km ([2]; read-out: Michaelis constant, Km, substrate of Mtb-rDapA): 388 µM |
| CC(=O)C(=O)O [pyruvate] |  | Tm increase of Mtb-rDapA upon binding (Mtb-rDapA): 2 °C |
| NC(=O)SCCCCC(=O)O [compound 13, 5-(Carbamoylthio)pentanoic acid] | 65 |  |
| CCC(=O)C(=O)O [α-ketobutyrate] |  | Ki (Escherichia coli DapA): 830 µM |
| O=C(O)CCCC(=O)C(=O)O [compound 2, 2-oxohexanedioic acid] | 40 |  |
| Nc1ccc(C(=O)O)cc1 [p-amino benzoic acid] |  | Inhibition of Mtb-rDapA (in words) [2]: None of these showed inhibition |
| NC(=O)CSCCCC(=O)O [compound 38, 4-((2-Amino-2-oxoethyl)thio) butanoic acid] | 15 |  |
| CCOC(=O)CCC[S+]([O-])CC(N)=O (centres unmarked) [compound 28, Ethyl 4-((2-amino-2-oxoethyl)sulfinyl)butanoate] | 31 |  |
| O=C(O)C(=O)CF [3-fluoropyruvate] |  | Ki (Escherichia coli DapA): 220 µM |
| CCOC(=O)C(=O)N(C)CCCC(N)=O [compound 25, Ethyl-amino-oxobutyl-methyl-amino-oxoacetate] | 35 |  |
| O=C(O)c1ccc(C(O)C(=O)O)cc1 (centres unmarked) [compound 23, Carboxy-hydroxy-methyl benzoic acid] | 35 |  |
| O=C(O)COc1ccccc1 [compound 9, 2-phenoxyacetic acid] | 4 | Inhibition of Mtb-rDapA (in words) [2]: None of these showed inhibition |
| O=CC(=O)O [glyoxylate] |  | Ki (Escherichia coli DapA): 16 µM |
| CCCC(=O)CC(=O)OC [compound 7, Methyl 3-oxohexanoate] | 5 | Inhibition of Mtb-rDapA (in words) [2]: did not show any inhibition |
| COC(=O)CCCC(=O)NC(N)=O [compound 12, Methyl-oxo-ureidopentanoate] | 65 |  |
| CCOC(=O)C(=O)N(C)CCCC(=O)OC [compound 15, methyl-ethoxy-methyl-oxoacetamido-butanoate] | 42 |  |
| COC(=O)CCCCC(O)C(N)=O (centres unmarked) [compound 31, Methyl 7-amino-6-hydroxy-7-oxoheptanoate] | 28 |  |
| NC(=O)c1ccc(C(=O)C(=O)O)cc1 [compound 37, 2-(4-Carbamoylphenyl)-2-oxoacetic acid] | 15 |  |
| COC(=O)CCCCC(=O)c1nn[nH]n1 [compound 21, methyl-oxo-tetrazol-hexanoate] | 35 |  |

| SMILES | Emax [1] [%] | also measured |
| --- | --- | --- |
| O=C(O)CCCCC(O)C(=O)O (centres unmarked) [compound 11, hydroxyheptanedioic acid] | 74 | IC50 ([1]; IC50, pyruvate 500 μM, ASA 400 μM): 31 µM |
| NC(=O)CS(=O)(=O)CCCC(=O)O [compound 30, 4-((2-amino-2-oxoethyl)sulfonyl) butanoic acid] | 29 |  |
| CCCCc1ccc(C(=O)O)nc1 [compound 10, 5-butylpyridine-2-carboxylic acid] | 5 | Inhibition of Mtb-rDapA (in words) [2]: None of these showed inhibition |
| CCOC(=O)C(=O)CCCCC(=O)O [compound 20, Ethoxy-dioxoheptanoic acid] | 35 |  |
| CCOC(=O)CCCS(=O)(=O)CC(N)=O [compound 39, Ethyl 4-((2-amino-2-oxoethyl)sulfonyl)butanoate] | 12 |  |
| COC(=O)CCCCC(=O)C(N)=O [compound 32, methyl 7-amino-6,7-dioxoheptanoate] | 24 |  |
| COC(=O)c1ccc(C(=O)C(=O)O)cc1 [compound 29, methoxycarbonyl-phenyl-oxoacetic acid] | 29 |  |
| O=C(O)CCCCCC(=O)O [compound 4, heptanedioic acid] | 10 |  |
| CCOC(=O)CCCSCC(N)=O [compound 34, Ethyl 4-((2-amino-2-oxoethyl)thio)butanoate] | 21 |  |
| CCCC(=O)C(=O)O [α-ketovalerate] |  | Ki (Escherichia coli DapA): 700 µM |
| CCOC(=O)CCCCSC(N)=O [compound 27, ethyl-carbamoylthio-pentanoate] | 34 |  |
| COC(=N)c1cccc(C(=N)OC)n1 [di-imidate of dimethyl pyridine-2,6-dicarboxylate] |  | IC50 (Escherichia coli DapA): 200 µM |
| NC(=O)NC(=O)CCCC(=O)O [compound 16, oxo-ureidopentanoic acid] | 40 |  |
| Nc1ccc(C(=O)O)cc1 [compound 6, p-amino benzoic acid] | 8 |  |
| CN(CCCC(N)=O)C(=O)C(N)=O [compound 17, amino-oxobutyl-methyloxalamide] | 40 |  |
| O=C(O)c1ccccc1 [compound 5, Benzoic acid] | 2 | Inhibition of Mtb-rDapA (in words) [2]: None of these showed inhibition |
| COC(=O)CCCN1C(=O)NC(=O)C1=O [compound 19, methyl-trioxoimidazolidin -butanoate] | 38 |  |
| COC(=O)c1ccc(C(=O)C(N)=O)cc1 [compound 22, Methyl-amino-oxoacetyl benzoate] | 35 |  |
| NC(=O)CCCCC(O)C(N)=O (centres unmarked) [compound 35, 2-Hydroxyheptanediamide] | 21 |  |
| COC(=O)c1ccc(C(O)C(=O)O)cc1 (centres unmarked) [compound 24, Hydroxy-methoxycarbonyl pheny acetic acid] | 35 |  |
| O=C(O)CCCN1C(=O)NC(=O)C1=O [compound 36, 4-(2,4,5-Trioxoimidazolidin-1-yl) butanoic acid] | 21 |  |
| Nc1ccc(C(=O)O)c(O)c1 [compound 8, 4-amino-2-hydroxy-benzoic acid] | 4 | Inhibition of Mtb-rDapA (in words) [2]: None of these showed inhibition |
| NC(=O)C(=O)c1ccc(C(=O)O)cc1 [compound 26, amino-oxoacetyl-benzoic acid] | 34 |  |
